Test results as given in PubChem BioAssay AID588624 (NMMLSC, 2011).
Active and inactive are the calls of the source.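 The calls were made as follows: active = half-maximal concentration at most 10 µM with response span of at least 30% and a trustworthy curve fit; inactive = the rest.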

Target: Cell division control protein 42 homolog (Homo sapiens) (UniProt P60953)
Experiment: constitutively active Cdc42 guanine nucleotide binding blockers – biochemical, activated mutant, bead multiplex, flow cytometry, round 2, selectivity assay for Rab7 inhibitor project, SAR follow-up (AID 588624)
Conditions: GST-Cdc42 act beads, Bodipy-GTP binding; for percent response of GTP binding: at 100 µM (top of the series)

Sequence of Cell division control protein 42 homolog (Homo sapiens) (P60953 whole entry, looked up): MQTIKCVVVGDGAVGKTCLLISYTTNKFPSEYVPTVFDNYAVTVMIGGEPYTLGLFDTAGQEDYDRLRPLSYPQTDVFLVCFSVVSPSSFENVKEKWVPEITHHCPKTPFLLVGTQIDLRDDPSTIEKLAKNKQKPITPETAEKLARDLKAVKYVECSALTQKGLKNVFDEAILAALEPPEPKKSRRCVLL

Compound	EC50 [nM]	percent response of GTP binding
CC1(C)Cc2c(sc(NC(=S)NC(=O)c3ccc(Br)cc3)c2C(=O)O)CO1	32100	
CC1(C)Cc2c(sc(NC(=S)NC(=O)c3cccc(Br)c3)c2C(=O)O)CO1	40600	
Cc1ccc(C(=O)NC(=S)Nc2sc3c(c2C(=O)O)CC(C)(C)OC3)cc1		inactive
CC1(C)Cc2c(sc(NC(=S)Nc3ccccc3)c2C(=O)O)CO1		inactive
CC1(C)Cc2c(sc(NC(=O)NC(=O)c3ccccc3)c2C(=O)O)CO1		inactive
CC1(C)Cc2c(sc(NC(=S)NC(=O)C3CCCCC3)c2C(=O)O)CO1	3130	
CC1(C)Cc2c(sc(NC(=S)NC(=O)c3ccco3)c2C(=O)O)CO1	326	
COc1cccc(C(=O)NC(=S)Nc2sc3c(c2C(=O)O)CC(C)(C)OC3)c1	1310	
COc1ccc(C(=O)NC(=S)Nc2sc3c(c2C(=O)O)CC(C)(C)OC3)cc1		inactive
CC1(C)Cc2c(sc(NC(=S)NC(=O)c3cccs3)c2C(=O)O)CO1		inactive
CC(C)(C)C1Cc2c(sc(NC(=S)NC(=O)c3ccccc3)c2C(=O)O)CO1 (centres undefined)	935	
O=C(NC(=S)Nc1sc2c(c1C(=O)O)CCOC2)c1ccccc1	12500	inactive
CC1(C)CCc2sc(NC(=S)NC(=O)c3ccccc3)c(C(=O)O)c2C1		inactive
CC1(C)Cc2c(sc(NC(=S)NC(=O)c3ccccc3F)c2C(=O)O)CO1	2090	
COc1ccccc1C(=O)NC(=S)Nc1sc2c(c1C(=O)O)CC(C)(C)OC2		inactive
CC1(C)Cc2c(sc(NC(=S)NC(=O)c3cccc(F)c3)c2C(=O)O)CO1	5830	
O=C(NC(=S)Nc1sc2c(c1C(=O)O)CC1(CCCC1)OC2)c1ccccc1		inactive
CCC1(C)Cc2c(sc(NC(=S)NC(=O)c3ccccc3)c2C(=O)O)CO1 (centres undefined)	177	
CC1(C)Cc2c(sc(NC(=S)NC(=O)c3ccccc3Br)c2C(=O)O)CO1	29500	
CC1(C)Cc2c(sc(NC(=S)NC(=O)c3ccc(F)cc3)c2C(=O)O)CO1	692	
CC1Cc2c(sc(NC(=S)NC(=O)c3ccccc3)c2C(=O)O)CO1 (centres undefined)	7980	
Cc1ccccc1C(=O)NC(=S)Nc1sc2c(c1C(=O)O)CC(C)(C)OC2	1350	
Cc1cccc(C(=O)NC(=S)Nc2sc3c(c2C(=O)O)CC(C)(C)OC3)c1		inactive
